What all share (assay): NCI-60 cell line screen, 48 h
The test system of experiment [1] is SR leukemia.
The subject of experiment [2] is SK-OV-3 ovarian.
Experiment [3] concerns NCI-H226 lung.
In experiment [4] the test system is A498 renal.
Experiment [5] relates to SNB-75 CNS.
For experiment [6], the system named is OVCAR-4 ovarian.
Experiment [7] has as its system SF-268 CNS.
In experiment [8] the test system is HCT-116 colon.
Experiment [9] concerns DU-145 prostate.
Experiment [10] concerns RXF 393 renal.

Experimental findings from PubChem BioAssay (NCI) are described below.

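Interpolation was linear, between the two tested concentrations surrounding the appropriate level; five concentrations were tested over 48 hours in 96-well plates. At the GI50, growth is halved. TGI denotes the concentration required for complete inhibition of growth.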

As for `CC(C)[C@H](O)C(=O)N[C@@H](C)C(=O)N[C@@H]1C(=O)N(C)CCc2ccccc21`, the GI50 in experiment [1], in [2], in experiment [3], in [4], in experiment [5] and in [6] was above 100 µM each time. Besides, the GI50 in experiment [7], in [8], in [9] and in [10] was above 100 µM in each case. For the same compound, the TGI in experiment [1], in experiment [2], in [3], in experiment [4], in [5] and in [6] was above 100 µM throughout. Further, the TGI in experiment [7], in experiment [8], in experiment [9] and in [10] was above 100 µM throughout.

With `CCc1ccc2c(c1)C(=O)c1c-2n(CCCN=[N+]=[N-])c(=O)c2cc([N+](=O)[O-])ccc12`, the GI50 was above 50 µM in [1]; above 50 µM in [3]; above 50 µM in experiment [4]; 25.5 µM in [5]; 49.6 µM in experiment [6]; above 50 µM in [7]. The GI50 in experiment [8], in experiment [9] and in [10] was above 50 µM throughout. The TGI in experiment [1], in [3], in experiment [4], in experiment [5], in experiment [6] and in experiment [7] was above 50 µM throughout. Moreover, the TGI in [8], in [9] and in experiment [10] was above 50 µM each time.

For the compound `Nc1cc(Br)c(-c2nnc(CCC(=O)c3nc4ccccc4[nH]3)o2)c(Br)c1`, the GI50 is 4.2 µM in experiment [1]; 22.3 µM in [2]; 22.6 µM in experiment [3]; 0.662 µM in [4]; 2.96 µM in experiment [5]; 5.49 µM in experiment [6]. The GI50 was 5.14 µM in experiment [7], 8.26 µM in [8], 5.4 µM in experiment [9] and 13 µM in [10]. Besides, the TGI in experiment [1] was above 100 µM; in experiment [2] it was 80.5 µM; in experiment [3], above 100 µM; in [4], 10.5 µM; in experiment [5], 20.5 µM; in [6], 78.3 µM. Besides, the TGI was 81.5 µM in experiment [7], above 100 µM in experiment [8], 53.5 µM in experiment [9] and 58.7 µM in [10].

On to `CC(C)c1[nH]nc2c1N=C(c1ccccc1Cl)c1cc([N+](=O)[O-])ccc1N2`, for which the GI50 is 1.51 µM in [1]; 10.1 µM in [2]; 5.09 µM in experiment [3]; 4.53 µM in experiment [4]; 1.31 µM in experiment [5]; 8.06 µM in [6]. In addition, the GI50 is 7.92 µM in experiment [7], 4.35 µM in experiment [8], 7.87 µM in experiment [9] and 3.64 µM in experiment [10]. Besides, the TGI was 10 µM in experiment [1]; above 25 µM in experiment [2]; 16.1 µM in experiment [3]; 9.37 µM in experiment [4]; above 17.6 µM in [5]; above 24.2 µM in experiment [6]. The TGI in experiment [7] is above 25 µM; in experiment [8], above 25 µM; in experiment [9], above 23.6 µM; in experiment [10] it was 8.45 µM.

For `C=CC(=O)N1CN(C(=O)C=C)CN(C(=O)C=C)C1`, the GI50 in experiment [1] was 2.46 µM; in experiment [2], 26.8 µM; in experiment [3], 5.87 µM; in experiment [4], 15.3 µM; in experiment [5], 8.9 µM; in experiment [6], 5.06 µM. In addition, the GI50 in [7] is 11 µM; in [8], 1.77 µM; in [9], 10.7 µM; in experiment [10], 1.33 µM. In addition, the TGI in experiment [1] is 6.82 µM; in experiment [2], above 100 µM; in [3], above 100 µM; in experiment [4] it was 32.4 µM; in [5] it was above 100 µM; in experiment [6], 21.2 µM. For the same compound, the TGI in experiment [7] was determined as 50.6 µM; in [8], 3.33 µM; in [9], 29 µM; in experiment [10], 2.83 µM.

Regarding `CO[C@H]1Nc2c(ccc(C)c2O)C(=O)N2C=C(/C=C/C(N)=O)C[C@@H]12`, the TGI was above 100 µM in experiment [1]; 3.72 µM in [2]; 0.47 µM in experiment [3]; 0.495 µM in experiment [4]; 0.0576 µM in experiment [5]; 0.686 µM in experiment [6]. The TGI in experiment [7] was 0.411 µM; in [9], above 62 µM; in experiment [10], 0.233 µM.

For `O=C1CCCN1c1ccccc1I(=O)=O`, the GI50 in [1] was 95.6 µM; in [2], above 100 µM; in [3], above 100 µM; in [4], above 100 µM; in experiment [5], above 100 µM; in experiment [6] it was above 100 µM. Further, the GI50 in experiment [7], in experiment [9] and in experiment [10] was above 100 µM throughout. In addition, the TGI in experiment [1], in experiment [2], in [3], in experiment [4], in [5] and in [6] was above 100 µM in each case. In addition, the TGI in experiment [7], in experiment [9] and in experiment [10] was above 100 µM throughout.

With `CN(C)CCNCCN`, the TGI in experiment [1], in experiment [2], in [3], in experiment [4], in experiment [6] and in [7] was above 100 µM in each case. The TGI in experiment [8] and in experiment [9] was above 100 µM each time.

Regarding `ClCCN(CCCl)c1ccc(CNc2ccccc2)cc1`, the GI50 was 0.674 µM in experiment [1]; 12 µM in experiment [2]; 10.3 µM in experiment [3]; 6.32 µM in experiment [4]; 3.7 µM in [5]; 16.2 µM in experiment [6]. For the same compound, the GI50 was 4.25 µM in experiment [7], 9.67 µM in experiment [8] and 5.28 µM in [9]. Further, the TGI in [1] is above 100 µM; in [2] it was above 100 µM; in experiment [3], 28.2 µM; in experiment [4], 24.3 µM; in [5], 57.4 µM; in experiment [6] it was above 100 µM. Also, the TGI in experiment [7], in experiment [8] and in experiment [9] was above 100 µM each time.
